According to US20240166624A1, “PPARG INVERSE AGONISTS AND USES THEREOF” (Flare Therapeutics Inc., priority 2021, published 2024):

Columns and labels:
[1] = molecular target: T1, PPARG/RXRA LBD heterodimer (Homo sapiens, UniProt P37231); assay: PPARγ-MED1 blockade assay (TR-FRET, biotinylated MED1 LxxLL peptide); format: biochemical; settings: WT PPARG LBD/WT RXRA LBD, 80 nM Rosiglitazone, 3 hours
T1 construct: His-TEV-Q203-Y477; Uniprot ID P37231-2; made in house; host or cells: E. coli
T1 sequence (P37231 203-477 isoform P37231-2): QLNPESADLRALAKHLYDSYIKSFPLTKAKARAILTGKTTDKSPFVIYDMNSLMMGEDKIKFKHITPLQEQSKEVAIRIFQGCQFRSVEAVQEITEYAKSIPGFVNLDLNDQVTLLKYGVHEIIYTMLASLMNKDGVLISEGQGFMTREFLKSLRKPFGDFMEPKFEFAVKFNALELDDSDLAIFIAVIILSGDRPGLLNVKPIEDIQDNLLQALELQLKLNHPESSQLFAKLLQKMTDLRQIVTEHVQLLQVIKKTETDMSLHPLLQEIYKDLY
T1 sequence (P19793 228-462 partner limits assumed): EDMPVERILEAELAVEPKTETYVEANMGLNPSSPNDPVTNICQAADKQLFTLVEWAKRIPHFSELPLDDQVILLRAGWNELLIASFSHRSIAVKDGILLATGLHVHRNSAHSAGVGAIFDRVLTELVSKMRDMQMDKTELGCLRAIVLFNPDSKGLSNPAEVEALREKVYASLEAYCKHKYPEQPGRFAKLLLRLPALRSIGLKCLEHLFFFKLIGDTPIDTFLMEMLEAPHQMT
Method: PPARγ-MED1 Blockade Assay:
Compound potency (IC50) and maximal extent of MED1 repulsion to PPARG were assessed a TR-FRET binding assay measuring association of a biotinylated MED1 LxxLL peptide (Biotin-[…]-amide) to PPARG/RXRA LBD heterodimer. Specifically, a 20 microliters of TR-FRET master mix consisting of 2 nM WT PPARG LBD (E. coli expressed, His-TEV-Q203-Y477; Uniprot ID P37231-2), 2 nM WT RXRA LBD (E. coli expressed, Flag-TEV-E228-T462; […]. Mixtures were incubated for 3 hours and read in an EnVision plate reader (Perkin Elmer) with Ex/Em 615/665. To determine the potency (IC50) and extent of MED1 repulsion, TR-FRET ratios were normalized to the average ratio of DMSO control wells (0%) and to the average minimum ratio for positive control compound (GW9662 (2-chloro-5-nitrobenzanilide); defined as 100%) in CDD Vault and analyzed using the Levenberg-Marquardt algorithm.

[2] = molecular target: T2, PPARG/RXRA LBD heterodimer (Homo sapiens, UniProt P37231); assay: PPARγ-NCOR1 recruitment assay (TR-FRET, biotinylated NCOR1 ID2 peptide); format: biochemical; settings: 80 nM Rosiglitazone, 3 hours, read-out: PPARG-NCOR recruitment assay EC50
T2 construct: His-TEV-Q203-Y477; Uniprot ID P37231-2; made in house; host or cells: E. coli
Method: PPARγ-NCOR1 Recruitment Assay:
Compound potency (EC50) and maximal extent of NCOR1 recruitment to PPARG were assessed a TR-FRET binding assay measuring association of a biotinylated NCOR1 ID2 peptide (Biotin-[…]-amide) to PPARG/RXRA LBD heterodimer. Specifically, a 20 microliters of TR-FRET master mix consisting of 2 nM WT PPARG LBD (E. coli expressed, His-TEV-Q203-Y477; Uniprot ID P37231-2), 2 nM WT RXRA LBD or mutant S427F RXRA LBD (E. coli expressed, Flag-TEV-E228-T462; […]. Mixtures were incubated for 3 hours and read in an EnVision plate reader (Perkin Elmer) with Ex/Em 615/665. To determine the potency (EC50) and extent of NCOR1 recruitment, TR-FRET ratios were normalized to the average ratio of DMSO control wells (0%) and to the average maximum ratio for positive control compound (T0070907 (2-chloro-5-nitro-N-4-pyridinyl-benzamide); defined as 100%) in CDD Vault and analyzed using the Levenberg-Marquardt algorithm.
T2 sequence (O75376 2251-2273 partner, one chain of several): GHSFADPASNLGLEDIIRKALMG

[3] = test system: ANGPTL4, a PPARG target gene, in HT1197 (RXRA S427F mutation) cells; assay: Bladder cancer pharmacodynamic assay, HT1197 cell assay (qPCR of ANGPTL4); format: cell-based; settings: Homo sapiens, 24 hours, 100 nM compound, relative to DMSO control
Method: Bladder Cancer Pharmacodynamic Assay
5637 (PPARG amplified) and HT1197 (RXRA S427F mutation) cells were used for assessment of modulation of PPARG target genes using quantitative PCR. Cells were treated for 24 hours with PPARG inverse agonists prior to analysis of FABP4 (IDT, Cat: Hs.PT 58.20106818) and ANGPTL4 (IDT, Cat: Hs.PT 58.25480012) expression, with expression of the housekeeping gene TBP (IDT, Cat: Hs.PT 58v.39858774) used to normalize expression across samples. Quantitative PCR was performed using an ABI QuantStudio 7 Flex Reaction system. Data were analyzed and reported relative to DMSO control using the comparative Ct method (ΔΔCt).

Row | Structure (SMILES) | EC50 [1] [nM] | EC50 [2] [nM] | inhibition at 0.1 µM [3] [%]
1 | Cc1c(F)cc(F)c2c(=O)cc(-c3cc(C#N)ccc3Cl)[nH]c12 [Example 28, 4-chloro-3-(5,7-difluoro-8-methyl-4-oxo-1,4-dihydroquinolin-2-yl)benzonitrile] | 100 to 1000 | > 10000 | 0
2 | N#Cc1ccc(Cl)c(-c2cc(=O)c3c(F)c(-n4ccnc4)c(F)cc3[nH]2)c1 [Example 29, 4-chloro-3-(5,7-difluoro-6-(1H-imidazol-1-yl)-4-oxo-1,4-dihydroquinolin-2-yl)benzonitrile] | 1000 to 10000 | 1000 to 10000 | 38
3 | Cc1cn(-c2c(F)cc3[nH]c(-c4cc(C#N)ccc4Cl)cc(=O)c3c2F)cn1 [Example 30, 4-chloro-3-(5,7-difluoro-6-(4-methyl-1H-imidazol-1-yl)-4-oxo-1,4-dihydroquinolin-2-yl)benzonitrile] | 100 to 1000 | 100 to 1000 | 39
4 | N#Cc1ccc(Cl)c(-c2cc(=O)c3ccc(Cl)cc3[nH]2)c1 [Example 31, 4-chloro-3-(7-chloro-4-oxo-1,4-dihydroquinolin-2-yl)benzonitrile] | 100 to 1000 | 100 to 1000 | 90
5 | N#Cc1ccc(Cl)c(-c2cc(=O)c3c(F)c(C(F)(F)F)c(F)cc3[nH]2)c1 [Example 32, 4-chloro-3-(5,7-difluoro-4-oxo-6-(trifluoromethyl)-1,4-dihydroquinolin-2-yl)benzonitrile] | 100 to 1000 | 100 to 1000 | 31
6 | COc1c(F)cc2[nH]c(-c3cc(C#N)ccc3Cl)cc(=O)c2c1F [Example 34, 4-chloro-3-(5,7-difluoro-6-methoxy-4-oxo-1,4-dihydroquinolin-2-yl)benzonitrile] | 100 to 1000 | 100 to 1000 | 79
7 | N#Cc1ccc(-c2c(F)cc3[nH]c(-c4cc(C#N)ccc4Cl)cc(=O)c3c2F)cc1 [Example 35, 4-chloro-3-(6-(4-cyanophenyl)-5,7-difluoro-4-oxo-1,4-dihydroquinolin-2-yl)benzonitrile] | 100 to 1000 | 100 to 1000 | 54
8 | N#Cc1ccc(Cl)c(-c2cc(=O)c3c(F)c(-c4ccc(C(F)F)cc4)c(F)cc3[nH]2)c1 [Example 36, 4-chloro-3-(6-(4-(difluoromethyl)phenyl)-5,7-difluoro-4-oxo-1,4-dihydroquinolin-2-yl)benzonitrile] | 10 to 100 | 10 to 100 | 65
9 | N#Cc1ccc(Cl)c(-c2cc(=O)c3c(F)c(-c4ccc(C(F)(F)F)nc4)c(F)cc3[nH]2)c1 [Example 37, 4-chloro-3-(5,7-difluoro-4-oxo-6-(6-(trifluoromethyl)pyridin-3-yl)-1,4-dihydroquinolin-2-yl)benzonitrile] | 100 to 1000 | 100 to 1000 | 87
10 | N#Cc1ccc(Cl)c(-c2cc(=O)c3c(F)c(-c4cnn(C(F)F)c4)c(F)cc3[nH]2)c1 [Example 38, 4-chloro-3-(6-(1-(difluoromethyl)-1H-pyrazol-4-yl)-5,7-difluoro-4-oxo-1,4-dihydroquinolin-2-yl)benzonitrile] | 100 to 1000 | 100 to 1000 | 80
11 | CS(=O)(=O)c1ccc(-c2c(F)cc3[nH]c(-c4cc(C#N)ccc4Cl)cc(=O)c3c2F)cc1 [Example 39, 4-chloro-3-(5,7-difluoro-6-(4-(methylsulfonyl)phenyl)-4-oxo-1,4-dihydroquinolin-2-yl)benzonitrile] | 100 to 1000 | 100 to 1000 | 33
12 | Cc1cc(-c2c(F)cc3[nH]c(-c4cc(C#N)ccc4Cl)cc(=O)c3c2F)ccn1 [Example 40, 4-chloro-3-(5,7-difluoro-6-(2-methylpyridin-4-yl)-4-oxo-1,4-dihydroquinolin-2-yl)benzonitrile] | 100 to 1000 | 100 to 1000 | 72
13 | N#Cc1cccc(-c2c(F)cc3[nH]c(-c4cc(C#N)ccc4Cl)cc(=O)c3c2F)c1 [Example 41, 4-chloro-3-(6-(3-cyanophenyl)-5,7-difluoro-4-oxo-1,4-dihydroquinolin-2-yl)benzonitrile] | 100 to 1000 | 10 to 100 | 72
14 | Cc1ncc(-c2c(F)cc3[nH]c(-c4cc(C#N)ccc4Cl)cc(=O)c3c2F)cn1 [Example 42, 4-chloro-3-(5,7-difluoro-6-(2-methylpyrimidin-5-yl)-4-oxo-1,4-dihydroquinolin-2-yl)benzonitrile] | 100 to 1000 | 100 to 1000 | 74
15 | Cc1cc(-c2c(F)cc3[nH]c(-c4cc(C#N)ccc4Cl)cc(=O)c3c2F)cc(C)n1 [Example 43, 4-chloro-3-(6-(2,6-dimethylpyridin-4-yl)-5,7-difluoro-4-oxo-1,4-dihydroquinolin-2-yl)benzonitrile] | 100 to 1000 | 100 to 1000 | 75
16 | Cn1cc(-c2c(F)cc3[nH]c(-c4cc(C#N)ccc4Cl)cc(=O)c3c2F)cn1 [Example 44, 4-chloro-3-(5,7-difluoro-6-(1-methyl-1H-pyrazol-4-yl)-4-oxo-1,4-dihydroquinolin-2-yl)benzonitrile] | 100 to 1000 | 100 to 1000 | 75
17 | N#Cc1ccc(Cl)c(-c2cc(=O)c3c(F)c(C4COC4)c(F)cc3[nH]2)c1 [Example 45, 4-chloro-3-(5,7-difluoro-6-(oxetan-3-yl)-4-oxo-1,4-dihydroquinolin-2-yl)benzonitrile] | 100 to 1000 | 100 to 1000 | 66
18 | Cc1ccc(-c2c(F)cc3[nH]c(-c4cc(C#N)ccc4Cl)cc(=O)c3c2F)cn1 [Example 46, 4-chloro-3-(5,7-difluoro-6-(6-methylpyridin-3-yl)-4-oxo-1,4-dihydroquinolin-2-yl)benzonitrile] | 100 to 1000 | 100 to 1000 | 80
19 | Cn1ccc(-c2c(F)cc3[nH]c(-c4cc(C#N)ccc4Cl)cc(=O)c3c2F)n1 [Example 47, 4-chloro-3-(5,7-difluoro-6-(1-methyl-1H-pyrazol-3-yl)-4-oxo-1,4-dihydroquinolin-2-yl)benzonitrile] | 100 to 1000 | 100 to 1000 | 66
20 | CC(C)(O)Cn1cc(-c2c(F)cc3[nH]c(-c4cc(C#N)ccc4Cl)cc(=O)c3c2F)cn1 [Example 48, 4-chloro-3-(5,7-difluoro-6-(1-(2-hydroxy-2-methylpropyl)-1H-pyrazol-4-yl)-4-oxo-1,4-dihydroquinolin-2-yl)benzonitrile] | 1000 to 10000 | 1000 to 10000 | 47
21 | N#Cc1ccc(Cl)c(-c2cc(=O)c3c(F)c(-c4ccncc4F)c(F)cc3[nH]2)c1 [Example 49, 4-chloro-3-(5,7-difluoro-6-(3-fluoropyridin-4-yl)-4-oxo-1,4-dihydroquinolin-2-yl)benzonitrile] | 100 to 1000 | 100 to 1000 | 52
